Reference: PubChem BioAssay (NCI)
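Five compound concentrations were applied to cells in 96-well plates for 48 hours; endpoints were derived by simple linear interpolation of the resulting dose-response curve. GI50: concentration for 50% inhibition of growth. TGI is the concentration that stops growth completely.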 Where a SMILES comes first, the peptide text is derived from it. [ ]: non-standard residue; d: D form. The star is where a group is joined. Ac5c = NC1(C(=O)O)CCCC1; Boc = CC(C)(C)OC(=O)*; tBu = CC(C)(C)*

Assays:
Experiment in all cases: DTP human tumour cell line panel, 48 h
NCI-H23 lung = test system: NCI-H23 lung
HOP-92 NSCLC = test system: HOP-92 NSCLC
NCI-H226 lung = test system: NCI-H226 lung
UACC-257 melanoma = test system: UACC-257 melanoma
OVCAR-8 ovarian = test system: OVCAR-8 ovarian
SF-539 CNS = test system: SF-539 CNS
MCF7 breast = test system: MCF7 breast
A549 NSCLC = test system: A549 NSCLC
EKVX NSCLC = test system: EKVX NSCLC
MDA-MB-231 breast = test system: MDA-MB-231 breast
OVCAR-4 ovarian = test system: OVCAR-4 ovarian
MDA-MB-435 = test system: MDA-MB-435
CCRF-CEM leukemia = test system: CCRF-CEM leukemia
A498 renal = test system: A498 renal
OVCAR-5 ovarian = test system: OVCAR-5 ovarian
NCI-H522 lung = test system: NCI-H522 lung
SF-268 CNS = test system: SF-268 CNS
HCC-2998 colon = test system: HCC-2998 colon
786-0 renal = test system: 786-0 renal
LOX IMVI melanoma = test system: LOX IMVI melanoma
CAKI-1 renal = test system: CAKI-1 renal
MOLT-4 leukemia = test system: MOLT-4 leukemia
SK-MEL-28 melanoma = test system: SK-MEL-28 melanoma
PC-3 prostate = test system: PC-3 prostate
HCT-15 colon = test system: HCT-15 colon
SNB-19 CNS = test system: SNB-19 CNS
M14 melanoma = test system: M14 melanoma
SN12C renal = test system: SN12C renal
BT-549 breast = test system: BT-549 breast
HOP-62 NSCLC = test system: HOP-62 NSCLC
SR leukemia = test system: SR leukemia
IGROV1 ovarian = test system: IGROV1 ovarian
SK-MEL-2 melanoma = test system: SK-MEL-2 melanoma
SK-OV-3 ovarian = test system: SK-OV-3 ovarian
KM12 colon = test system: KM12 colon
COLO 205 colon = test system: COLO 205 colon
UACC-62 melanoma = test system: UACC-62 melanoma
MALME-3M melanoma = test system: MALME-3M melanoma
HT29 colon = test system: HT29 colon
SK-MEL-5 melanoma = test system: SK-MEL-5 melanoma
SNB-75 CNS = test system: SNB-75 CNS
RXF 393 renal = test system: RXF 393 renal
ACHN renal = test system: ACHN renal
UO-31 renal = test system: UO-31 renal
HCT-116 colon = test system: HCT-116 colon
TK-10 renal = test system: TK-10 renal
SW-620 colon = test system: SW-620 colon
HS 578T breast = test system: HS 578T breast
K-562 leukemia = test system: K-562 leukemia
NCI/ADR-RES ovarian = test system: NCI/ADR-RES ovarian
OVCAR-3 ovarian = test system: OVCAR-3 ovarian
NCI-H460 lung = test system: NCI-H460 lung
U251 CNS = test system: U251 CNS
SF-295 CNS = test system: SF-295 CNS
RPMI-8226 leukemia = test system: RPMI-8226 leukemia
DU-145 prostate = test system: DU-145 prostate
HL-60(TB) leukemia = test system: HL-60(TB) leukemia

CC(OC(C)(C)C)C1NC(=O)C(CCCCNC(=O)OC(C)(C)C)NC(=O)C(Cc2c[nH]c3ccccc23)NC(=O)C(Cc2ccccc2)NC(=O)C2(CCCC2)NC(=O)C(Cc2ccccc2)NC1=O (stereo not drawn) (cyclo([Ac5c]FWK(Boc)T(tBu)F); configuration not given here)
TGI (NCI-H23 lung): > 100 µM
TGI (HOP-92 NSCLC): 67.1 µM
TGI (NCI-H226 lung): 47.6 µM
TGI (UACC-257 melanoma): 46.6 µM

Cn1cc(-c2nc(-c3c[nH]c4ccccc34)cs2)c2cccnc21
GI50 (OVCAR-8 ovarian): 0.689 µM
TGI (OVCAR-8 ovarian): > 100 µM
GI50 (SF-539 CNS): 0.282 µM
TGI (SF-539 CNS): 1.44 µM
GI50 (NCI-H23 lung): 1.04 µM
TGI (NCI-H23 lung): > 100 µM
GI50 (MCF7 breast): 0.325 µM
TGI (MCF7 breast): > 100 µM
GI50 (A549 NSCLC): 0.608 µM
TGI (A549 NSCLC): > 100 µM
GI50 (EKVX NSCLC): 0.907 µM
TGI (EKVX NSCLC): > 100 µM
GI50 (MDA-MB-231 breast): 1.29 µM
TGI (MDA-MB-231 breast): > 100 µM
GI50 (OVCAR-4 ovarian): 0.756 µM
TGI (OVCAR-4 ovarian): > 60.4 µM
GI50 (MDA-MB-435): 0.0321 µM
TGI (MDA-MB-435): 0.25 µM
GI50 (CCRF-CEM leukemia): 0.353 µM
TGI (CCRF-CEM leukemia): > 100 µM
GI50 (A498 renal): 0.315 µM
TGI (A498 renal): 6.1 µM
GI50 (OVCAR-5 ovarian): 2.11 µM
TGI (OVCAR-5 ovarian): > 100 µM
GI50 (NCI-H522 lung): 0.0586 µM
TGI (NCI-H522 lung): 6.67 µM
GI50 (SF-268 CNS): 0.689 µM
TGI (SF-268 CNS): > 100 µM
GI50 (HCC-2998 colon): 0.844 µM
TGI (HCC-2998 colon): > 79.7 µM
GI50 (786-0 renal): 0.525 µM
TGI (786-0 renal): 49.4 µM
GI50 (LOX IMVI melanoma): 0.628 µM
TGI (LOX IMVI melanoma): > 100 µM
GI50 (HOP-92 NSCLC): 0.295 µM
TGI (HOP-92 NSCLC): 17.2 µM
GI50 (CAKI-1 renal): 0.273 µM
TGI (CAKI-1 renal): > 100 µM
GI50 (MOLT-4 leukemia): 0.757 µM
TGI (MOLT-4 leukemia): > 60.3 µM
GI50 (NCI-H226 lung): 0.578 µM
TGI (NCI-H226 lung): > 100 µM
GI50 (SK-MEL-28 melanoma): 0.71 µM
TGI (SK-MEL-28 melanoma): > 100 µM
GI50 (PC-3 prostate): 0.41 µM
TGI (PC-3 prostate): > 100 µM
GI50 (HCT-15 colon): 0.221 µM
TGI (HCT-15 colon): > 100 µM
GI50 (SNB-19 CNS): 0.53 µM
TGI (SNB-19 CNS): > 100 µM
GI50 (M14 melanoma): 0.234 µM
TGI (M14 melanoma): > 54.2 µM
GI50 (SN12C renal): 2.09 µM
TGI (SN12C renal): > 100 µM
GI50 (BT-549 breast): 0.325 µM
TGI (BT-549 breast): 17.8 µM
GI50 (HOP-62 NSCLC): 0.626 µM
TGI (HOP-62 NSCLC): 59.9 µM
GI50 (SR leukemia): 0.167 µM
TGI (SR leukemia): > 79.4 µM
GI50 (UACC-257 melanoma): 14.2 µM
TGI (UACC-257 melanoma): > 100 µM
GI50 (IGROV1 ovarian): 1.13 µM
TGI (IGROV1 ovarian): > 100 µM
GI50 (SK-MEL-2 melanoma): 0.353 µM
TGI (SK-MEL-2 melanoma): 51.8 µM
GI50 (SK-OV-3 ovarian): 0.523 µM
TGI (SK-OV-3 ovarian): > 82.4 µM
GI50 (KM12 colon): 0.314 µM
TGI (KM12 colon): 22.8 µM
GI50 (COLO 205 colon): 0.188 µM
TGI (COLO 205 colon): 1.03 µM
GI50 (UACC-62 melanoma): 0.388 µM
TGI (UACC-62 melanoma): > 72.9 µM
GI50 (MALME-3M melanoma): 0.745 µM
TGI (MALME-3M melanoma): 86.6 µM
GI50 (HT29 colon): 0.166 µM
TGI (HT29 colon): 18.3 µM
GI50 (SK-MEL-5 melanoma): 0.255 µM
TGI (SK-MEL-5 melanoma): 16.1 µM
GI50 (SNB-75 CNS): 0.161 µM
TGI (SNB-75 CNS): 0.779 µM
GI50 (RXF 393 renal): 0.368 µM
TGI (RXF 393 renal): 15.9 µM
GI50 (ACHN renal): 0.527 µM
TGI (ACHN renal): > 100 µM
GI50 (UO-31 renal): 0.649 µM
TGI (UO-31 renal): > 100 µM
GI50 (HCT-116 colon): 0.364 µM
TGI (HCT-116 colon): > 47.2 µM
GI50 (TK-10 renal): 1.46 µM
TGI (TK-10 renal): 65.1 µM
GI50 (SW-620 colon): 0.221 µM
TGI (SW-620 colon): > 100 µM
GI50 (HS 578T breast): 0.424 µM
TGI (HS 578T breast): > 85.1 µM
GI50 (K-562 leukemia): 0.106 µM
TGI (K-562 leukemia): > 100 µM
GI50 (NCI/ADR-RES ovarian): 0.11 µM
TGI (NCI/ADR-RES ovarian): 3.37 µM
GI50 (OVCAR-3 ovarian): 0.2 µM
TGI (OVCAR-3 ovarian): 5.9 µM
GI50 (NCI-H460 lung): 0.339 µM
TGI (NCI-H460 lung): > 100 µM
GI50 (U251 CNS): 0.432 µM
TGI (U251 CNS): > 53.9 µM
GI50 (SF-295 CNS): 0.268 µM
TGI (SF-295 CNS): 19.8 µM
GI50 (RPMI-8226 leukemia): 0.541 µM
TGI (RPMI-8226 leukemia): 32.3 µM
GI50 (DU-145 prostate): 0.564 µM
TGI (DU-145 prostate): > 100 µM
GI50 (HL-60(TB) leukemia): 0.317 µM
TGI (HL-60(TB) leukemia): > 72.4 µM
